One data set deals with MDA-MB-468. The data set is described as follows: Antiproliferative activity against beta-catenin signalling overexpressing human MDA-MB-468 cells assessed as reduction in cell growth incubated for 72 hrs by MTS assay. It is filed as functional, cell-based. Particulars: MDA-MB-468, 72 h. (Tetrazolium assays rely on reduction of a dye to a coloured formazan, in cell work by metabolically active cells.)

The test system of the next data set is HCT-116. The data set is described as follows: Antiproliferative activity against beta-catenin signalling overexpressing human HCT-116 cells assessed as reduction in cell growth incubated for 72 hrs by MTS assay. Particulars: HCT-116, 72 h. Format: functional, cell-based.
Data set [1] can be described thus: Cytotoxicity against human MCF-10A cells assessed as reduction in cell growth incubated for 72 hrs by MTS assay. Format: toxicity, cell-based.
The nature of data set [2]: Inhibition of full length beta-catenin D145A mutant/N-terminal biotinylated human BCL9 HD2 (350 to 375 residues) protein-protein interaction in human SW480 cells incubated for 1 hr by Alphascreen assay. Format: cell-based. In general terms: Bead proximity is the source of the signal in Alpha formats.
For data set [3], the target named is T1, Catenin beta-1/Cadherin-1 (Homo sapiens, UniProt P35222).
T1 sequence (P35222 whole entry): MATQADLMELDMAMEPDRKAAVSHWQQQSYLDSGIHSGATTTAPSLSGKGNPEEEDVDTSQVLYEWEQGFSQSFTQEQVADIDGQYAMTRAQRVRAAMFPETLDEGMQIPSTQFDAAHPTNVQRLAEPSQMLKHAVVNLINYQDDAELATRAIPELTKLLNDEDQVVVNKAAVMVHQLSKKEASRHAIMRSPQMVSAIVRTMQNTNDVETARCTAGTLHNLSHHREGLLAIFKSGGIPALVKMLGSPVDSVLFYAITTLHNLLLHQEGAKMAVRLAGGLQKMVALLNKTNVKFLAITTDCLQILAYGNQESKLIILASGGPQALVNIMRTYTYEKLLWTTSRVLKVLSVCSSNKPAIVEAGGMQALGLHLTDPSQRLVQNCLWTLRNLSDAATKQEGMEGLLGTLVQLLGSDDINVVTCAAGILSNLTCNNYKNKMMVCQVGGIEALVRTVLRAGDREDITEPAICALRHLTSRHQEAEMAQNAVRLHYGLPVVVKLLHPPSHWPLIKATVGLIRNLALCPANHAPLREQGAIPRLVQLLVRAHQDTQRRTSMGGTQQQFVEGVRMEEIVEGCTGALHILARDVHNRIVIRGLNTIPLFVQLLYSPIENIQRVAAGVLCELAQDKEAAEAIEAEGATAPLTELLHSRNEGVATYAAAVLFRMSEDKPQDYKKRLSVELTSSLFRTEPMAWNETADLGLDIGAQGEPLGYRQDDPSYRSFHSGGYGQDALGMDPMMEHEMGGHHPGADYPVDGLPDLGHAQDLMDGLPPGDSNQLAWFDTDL
T1 sequence (P12830 whole entry): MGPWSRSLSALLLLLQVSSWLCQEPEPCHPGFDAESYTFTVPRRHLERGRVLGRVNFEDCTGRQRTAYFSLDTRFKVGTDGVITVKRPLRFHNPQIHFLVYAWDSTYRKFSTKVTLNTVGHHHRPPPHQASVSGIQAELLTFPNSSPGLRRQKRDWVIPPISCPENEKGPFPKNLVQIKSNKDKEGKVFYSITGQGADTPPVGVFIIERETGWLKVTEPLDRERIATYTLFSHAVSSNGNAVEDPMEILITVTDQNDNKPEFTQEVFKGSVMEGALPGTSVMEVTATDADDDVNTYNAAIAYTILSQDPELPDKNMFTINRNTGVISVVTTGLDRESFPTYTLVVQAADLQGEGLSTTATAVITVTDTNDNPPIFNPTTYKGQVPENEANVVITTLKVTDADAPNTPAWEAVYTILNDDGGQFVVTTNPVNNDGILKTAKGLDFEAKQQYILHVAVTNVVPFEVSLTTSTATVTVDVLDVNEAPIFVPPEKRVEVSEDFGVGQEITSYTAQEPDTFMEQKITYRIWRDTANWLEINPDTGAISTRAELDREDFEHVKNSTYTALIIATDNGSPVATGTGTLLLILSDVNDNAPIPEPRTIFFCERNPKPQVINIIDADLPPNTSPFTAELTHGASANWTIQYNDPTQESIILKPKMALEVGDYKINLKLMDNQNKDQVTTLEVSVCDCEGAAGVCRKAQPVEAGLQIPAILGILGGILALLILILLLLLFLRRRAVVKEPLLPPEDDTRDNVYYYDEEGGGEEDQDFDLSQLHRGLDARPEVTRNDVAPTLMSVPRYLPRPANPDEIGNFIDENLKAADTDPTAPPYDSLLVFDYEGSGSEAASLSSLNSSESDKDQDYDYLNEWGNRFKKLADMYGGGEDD
The data set is described as follows: Inhibition of full length beta-catenin (1 to 686 residues) (unknown origin) expressed in Escherichia coli BL21 (DE3)/N-terminal biotinylated human E-cadherin (824 to 877 residues) protein-protein interaction assessed as inhibition constant incubated for 2 hr by Alphascreen assay.

A short description of data set [4]: Inhibition of full length beta-catenin E155A mutant/N-terminal biotinylated human BCL9 HD2 (350 to 375 residues) protein-protein interaction in human SW480 cells incubated for 1 hr by Alphascreen assay. Format: cell-based.

In ChEMBL document CHEMBL5226326, “Discovery of 1-Benzoyl 4-Phenoxypiperidines as Small-Molecule Inhibitors of the β-Catenin/B-Cell Lymphoma 9 Protein-Protein Interaction” (J Med Chem, 2021) one finds IC50 and Ki data, which are given here for one compound.

Regarding `CC(C)(C)C1CCC(c2cc(C(=O)N3CCC(Oc4cc(N5CCNCC5)ccc4C#N)CC3)ccc2O[C@H]2CCNC2)CC1.Cl.Cl` (mixture of isomers; cis), the results for the IC50 in the data set with MDA-MB-468 and in the data set on HCT-116 were 3.9 µM and 9.7 µM, respectively. Further, in data set [1], the 50% inhibitory concentration (IC50) at 72 h was 18 µM. For the same compound, the inhibition constant (Ki) in data set [2] came to 6.9 µM; in data set [3], 19 µM; in data set [4] it was 3.6 µM.

In general, IC50 refers to the concentration at which inhibition is half-maximal. What is called Ki is a dissociation constant, usually derived from enzyme kinetics or from competition with a known ligand.
